Data published in US5843755A, “Group of antitumor compounds and method for producing the same” (Ajinomoto Co., Inc., priority 1996, dated 1998).
In brackets after ≈: the same amount, converted by molar mass.

Tests used:
[1] = Stability of the tautomers; format: physicochemical; settings: tautomeric equilibrium in organic solvent such as acetonitrile, chloroform, acetic acid
K562T = assay: Growth-inhibiting action on various cells (MTT), K562T; format: cell-based; settings: 72 h, human leukemia, 4 × 10^4 cells/ml, 3 days, read-out: IC50 (concentration at which cell proliferation is inhibited by 50%)
Description: (§1) The proliferation-inhibiting action of FE399 compounds obtained by purification, on various cells was measured under a condition shown below.
(§2) After that, FE399-P1 or FE399-P2 was added thereto at an appropriate concentration, followed by further cultivation for 3 days. However, as for P388 and K562, the FE399 compound group was added immediately after preparation of cell culture liquids. Each of the cultures was added with 10 μl of a solution of MTT (3-(4,5-dimethyl-2-thiazolyl)-2,5-diphenyl-2H-tetrazolium.Br, 5 mg/ml Dulbecco PBS(-)), followed by cultivation at 37° C. for 4 hours in the carbon dioxide gas incubator. After that, each of the cultures was added with 50 μl of 0.01N hydrochloric acid/20% SDS, and then the absorbance was measured at 570 nm by using a microplate reader (reference wavelength: 630 nm).

Colon26 = assay: Growth-inhibiting action on various cells (MTT), Colon26; format: cell-based; settings: Colon 26, 72 h, Colon26, mouse colon cancer, 5 × 10^4 cells/ml, 3 days, read-out: IC50 (concentration at which cell proliferation is inhibited by 50%)
Description: as §1, §2

SW948 = assay: Growth-inhibiting action on various cells (MTT), SW948; format: cell-based; settings: 72 h, SW948, human colon cancer, 5 × 10^4 cells/ml, 3 days, read-out: IC50 (concentration at which cell proliferation is inhibited by 50%)
Description: as §1, §2

P388 = assay: Growth-inhibiting action on various cells (MTT), P388; format: cell-based; settings: 72 h, P388, mouse leukemia, 2 × 10^4 cells/ml, 3 days, read-out: IC50 (concentration at which cell proliferation is inhibited by 50%)
Description: as §1, §2

CHO-K1 = assay: Growth-inhibiting action on various cells (MTT), CHO-K1; format: cell-based; settings: Cricetulus griseus, 72 h, CHO-K1, Chinese hamster ovary fibroblast, 1.5 × 10^4 cells/ml, 3 days, read-out: IC50 (concentration at which cell proliferation is inhibited by 50%)
Description: as §1, §2

Solubility = format: physicochemical
[2] = test system: Mouse colon cancer cells (colon-26); assay: Anticancer effect on solid cancer, colon-26 transplanted subcutaneously to CDFI mice; format: in vivo; settings: cisplatin 5 mg/kg on 7th, 11th and 15th day
Description: Mouse colon cancer cells (colon-26) subcultured in vivo subcutaneously in a CDFI mouse were excised from the subcutaneous portion of the mouse. The cells were minced and transplanted subcutaneously with a trocar to CDFI mice (female, 4 weeks old) so that the concentration was 10 mg/mouse. The day of the transplantation was designated as 0th day. On 7th day, the tumor size and the body weight were measured, and the mice were classified into groups with n=4. The tumor size was calculated as a tumor weight in accordance with the following arithmetic expression. [formula]
FE399 which was obtained by drying up the acetonitrile solution of FE399-1 isolated by the method described in Example 1 under a reduced precondition was administered to the mice described above in accordance with the following schedule. FE399 was administered intraperitoneally in an administration amount of 0.2 mL/mouse. FE399 was dissolved in dimethyl sulfoxide (DMSO) so that the concentration was 100 mg/ml. The concentration was adjusted with physiological saline containing 5% Tween 80 so that the administration amount was 4 mg/kg or 8 mg/kg. […]
The anticancer effect was evaluated on the basis of the tumor enhancement inhibitory ratio (IR) calculated from the tumor weight. IR was determined in accordance with the following arithmetic expression. […]

Stability among the group of the compounds [1]	IC50 (K562T) [µg/mL]	IC50 (SW948) [µg/mL]	IC50 (P388) [µg/mL]	Solubility (Solubility; in dimethyl sulfoxide, chloroform, ethyl acetate, methanol, and acetonitrile)	Solubility (Solubility; in pyridine and acetic acid)	Solubility (Solubility; in water)	Compound	IC50 (Colon26) [µg/mL]	IC50 (CHO-K1) [µg/mL]	IR (tumor enhancement inhibitory ratio) ([2]; 15th day)	IR (tumor enhancement inhibitory ratio) ([2]; 21st day)
relatively stable	0.31 (≈ 0.77 µM)	0.15 (≈ 0.373 µM)	0.36 (≈ 0.894 µM)	soluble	readily soluble	scarcely soluble	CCCC1CCCCCCCC(=O)NC2CSSCC(NC2=O)C(=O)O1 (centres unmarked) [FE399-P1]	0.4 (≈ 0.994 µM)	0.3 (≈ 0.745 µM)		
							N.N.[Cl][Pt][Cl] [cisplatin]			63	73
